Data as given in patent EP3035931B1, “COMPOSITION FOR REDUCING NERVOUS SYSTEM INJURY AND METHOD OF MAKING AND USE THEREOF” (Morehouse School of Medicine, priority 2013, dated 2015).
Where “and” joins values, the source holds several entries; their conditions need not be identical. Equal entries are not always repeated. Structures can show the parent of a compound that is named as a salt. Where two headings read alike, the source gives them in different places.

Tests used:
[1] = test system: cultured cortical neurons; assay: LDH release after combined 1 hr OGD/acidosis in cortical neurons; format: cell-based, mouse; conditions: trolox 500 µM, L-NAME 300 µM; n=8-11
Description: (§1) Background absorbance at 620 was subtracted.
Neurons were washed three times and incubated with glucose-free ECF at pH 7.4 or 6.0 in an anaerobic chamber (Model 1025, Forma Scientific) with an atmosphere of 85% N2, 10% H2, and 5% CO2 at 35° C. Oxygen-glucose deprivation (OGD) was terminated after 1 hr by replacing the glucose-free ECF with Neurobasal medium and incubating the cultures in a normal cell culture incubator.
As the magnitude of ASIC currents may be potentiated by cellular and neurochemical components of brain ischemia-cell swelling, arachidonic acid, and lactate and, more importantly, the desensitization of ASIC currents may be reduced dramatically by modeled ischemia (see FIGS. 5A and 5C), activation of ASICs in ischemic conditions is expected to produce greater neuronal injury. To test this hypothesis, neurons were subjected to 1 hr acid treatment under oxygen and glucose deprivation (OGD). MK801, CNQX, and nimodipine were added to all solutions to inhibit voltage-gated Ca^2+ channels and glutamate receptor-mediated cell injury associated with OGD. One hour incubation with pH 7.4 ECF under OGD conditions induced only 27.1% ± 3.5% of maximal LDH release at 24 hr (n=5, FIG. 9D).

ASIC1a channel = biological target: T1, ASIC1a channel (Mus musculus, UniProt Q6NXK8); assay: Table 1, inhibition in neurons; format: cell-based
T1 construct: endogenous in cells
T1 sequence (Q6NXK8 1-526): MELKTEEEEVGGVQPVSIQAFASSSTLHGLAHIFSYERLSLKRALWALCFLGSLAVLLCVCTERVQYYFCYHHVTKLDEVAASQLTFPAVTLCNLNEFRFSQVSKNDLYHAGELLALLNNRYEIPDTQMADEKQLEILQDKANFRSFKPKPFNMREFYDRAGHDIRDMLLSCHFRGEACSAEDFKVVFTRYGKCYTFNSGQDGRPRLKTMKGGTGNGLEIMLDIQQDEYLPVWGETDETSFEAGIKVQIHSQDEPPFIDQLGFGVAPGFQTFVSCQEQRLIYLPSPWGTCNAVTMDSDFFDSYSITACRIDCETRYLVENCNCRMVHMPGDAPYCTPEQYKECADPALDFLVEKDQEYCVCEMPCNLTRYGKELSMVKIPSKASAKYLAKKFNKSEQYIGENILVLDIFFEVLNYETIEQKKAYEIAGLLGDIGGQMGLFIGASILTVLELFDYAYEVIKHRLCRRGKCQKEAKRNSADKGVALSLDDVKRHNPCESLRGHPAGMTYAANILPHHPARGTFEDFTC
Description: ASIC currents were recorded with whole-cell patch-clamp and fast-perfusion techniques. […] For low pH solutions, various amounts of HCl were added. For solutions with pH<6.0, MES instead of HEPES was used for more reliable pH buffering. Patch electrodes contained (in mM) 140 CsF, 2.0 MgCl2, 1.0 CaC2, 10 HEPES, 11 EGTA, 4 MgATP (pH 7.3), 300 mOsm. […] A multibarrel perfusion system (SF-77B, Warner Instrument Co.) was employed for rapid exchange of solutions.

ASIC1a [2] = biological target: T2, ASIC1a (Homo sapiens, UniProt P78348); assay: Inhibition of the ASIC1a channel (IC50 from Table 1, cell system not given); format: cell-based; conditions: quoted in the text from Table 1
T2 sequence (P78348 1-528): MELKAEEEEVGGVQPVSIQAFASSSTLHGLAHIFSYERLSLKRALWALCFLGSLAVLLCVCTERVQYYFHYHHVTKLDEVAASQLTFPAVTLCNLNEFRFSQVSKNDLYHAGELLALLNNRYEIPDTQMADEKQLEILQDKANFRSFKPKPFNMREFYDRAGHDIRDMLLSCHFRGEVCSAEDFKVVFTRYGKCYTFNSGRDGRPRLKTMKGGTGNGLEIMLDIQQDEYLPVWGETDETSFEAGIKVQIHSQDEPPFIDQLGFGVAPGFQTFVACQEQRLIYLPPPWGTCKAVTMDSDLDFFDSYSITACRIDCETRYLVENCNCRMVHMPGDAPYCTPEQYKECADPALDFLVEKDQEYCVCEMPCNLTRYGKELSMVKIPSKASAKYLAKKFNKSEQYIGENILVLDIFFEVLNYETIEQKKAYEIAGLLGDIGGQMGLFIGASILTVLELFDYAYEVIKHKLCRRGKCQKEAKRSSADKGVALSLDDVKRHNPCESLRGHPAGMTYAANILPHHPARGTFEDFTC

[3] = 0.9% saline; cited from earlier work
ASIC1^-/- neurons = format: cell-based, mouse; conditions: 1 hr treatment with 1 mM NMDA+10 µM glycine in Mg^2+-free pH 7.4 ECF; n=4
Description: Following anesthesia with halothane, cerebral cortices were dissected from E16 Swiss mice or P1 ASIC1+/+ and ASIC1-/- mice and incubated with 0.05% trypsin-EDTA for 10 min at 37° C. Tissues were then triturated with fire-polished glass pipettes and plated on poly-L-ornithine-coated 24-well plates or 25x25 mm glass coverslips at a density of 2.5x10^5 cells per well or 10^6 cells per coverslip. Neurons were cultured with MEM supplemented with 10% horse serum (for E16 cultures) or Neurobasal medium supplemented with B27 (for PI cultures) and used for electrophysiology and toxicity studies after 12 days. Glial growth was suppressed by addition of 5-fluoro-2-deoxyuridine and uridine, yielding cultured cells with 90% neurons as determined by NeuN and GFAP staining (data not shown).
as §1
. […] . In contrast to acid incubation, 1 hr treatment of ASIC1^-/- neurons with 1 mM NMDA+10 µM glycine (in Mg^2+-free [pH 7.4] ECF) induced 84.8% ± 1.4% of maximal LDH release at 24 hr (n=4, FIG. 9C), indicating normal response to other cell injury processes.

Knockout 1a = assay: Table 1, inhibition in Knockout 1a; format: cell-based
Knockout 2a = assay: Table 1, inhibition in Knockout 2a; format: cell-based
ASIC2a = biological target: T3, ASIC2a (Homo sapiens, UniProt Q16515); assay: Blockade of ASIC 2a current expressed in CHO cells; format: cell-based
T3 construct: expressed in transfected cells; host or cells: CHO
T3 sequence (Q16515 1-512): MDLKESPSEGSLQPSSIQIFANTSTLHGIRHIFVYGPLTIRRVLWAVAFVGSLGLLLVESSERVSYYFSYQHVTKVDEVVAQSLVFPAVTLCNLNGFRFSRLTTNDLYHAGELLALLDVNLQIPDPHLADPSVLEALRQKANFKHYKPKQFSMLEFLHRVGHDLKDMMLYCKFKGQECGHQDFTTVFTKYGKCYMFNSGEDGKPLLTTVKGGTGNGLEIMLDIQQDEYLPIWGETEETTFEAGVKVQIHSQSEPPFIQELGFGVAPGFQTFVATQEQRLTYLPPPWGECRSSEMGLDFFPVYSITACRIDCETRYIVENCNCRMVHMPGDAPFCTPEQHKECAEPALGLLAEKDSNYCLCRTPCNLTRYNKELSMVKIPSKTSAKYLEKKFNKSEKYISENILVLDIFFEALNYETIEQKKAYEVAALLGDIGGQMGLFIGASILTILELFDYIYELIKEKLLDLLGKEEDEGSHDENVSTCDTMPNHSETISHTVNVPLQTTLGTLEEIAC

ASIC1a [4] = biological target: T2, ASIC1a; assay: Blockade of ASIC 1a current expressed in CHO cells; format: cell-based; parameters: expressed in transfected cells; host or cells: CHO; conditions: for block of ASIC1a current: CHO cells, FIG. 16
[5] = Mouse 60 min MCAO, intracerebroventricular injection one hour after MCAO, infarct volume; conditions: mice, evaluated one day after ischemia induction, FIG. 18
cortical neurons = assay: Fura-2 Ca^2+ imaging of acid-induced increase of [Ca^2+]i in cortical neurons; format: cell-based, mouse; conditions: preincubation with 1 µM; n=6
[6] = Mouse 60 min MCAO, memantine i.p. with or without PcTX venom i.c.v., infarct volume; format: in vivo, mice
[7] = read-out: Inhibition of the ASIC1a channel, Neuron (-60 mV)
[8] = Neuron (-60 mV), read-out: Inhibition of the ASIC1a channel, Neuron (-60 mV)

COC(=O)[C@@H](N)CCCNC(=N)N[N+](=O)[O-] [L-NAME]
LDH release induced by combined 1 hr OGD/acidosis [1]: not inhibited

CN(C)c1nc(N)c(C(=O)NC(=N)N)nc1Cl [5-(N, N-Dimenthyl)amiloride hydrochloride]
IC50 (ASIC1a channel; [7]): 14.8 ± 7.1 µM

NC(=NCc1ccccc1)NC(=O)c1nc(Cl)c(N)nc1N [benzamil]
IC50 (ASIC1a [2]): 4.9 µM and 4 to 8 µM
reported solubility [3]: 0.4 mg/ml and 1.7 mM

CN[C@H](CC(=O)O)C(=O)O [NMDA]
maximal LDH release at 24 hr (ASIC1^-/- neurons): 84.8% ± 1.4%

CC(C)CN(C)c1nc(N)c(C(=O)N=C(N)N)nc1Cl [5-(N-Methyl-N-isobutyl)-amiloride]
IC50 (ASIC1a channel; [7]): 24.3 µM

CCN(c1nc(N)c(C(=O)NC(=N)N)nc1Cl)C(C)C [EIPA, 5-(N-ethyl-N-isopropyl) amiloride]
IC50 (Knockout 1a): 35.9 ± 2.1 µM
IC50 (ASIC1a channel; Neuron (-20 mV), read-out: Inhibition of the ASIC1a channel, Neuron (-20 mV)): 32.2 ± 6.3 µM
IC50 (ASIC1a channel; [8]): 43.3 ± 1.43 µM
IC50 (Knockout 2a): 20.1 ± 2.2 µM
IC50 (ASIC2a; CHO 2a, read-out: Inhibition, CHO 2a): 31 µM
block of ASIC2a current (ASIC2a; CHO cells, FIG. 17): dose-dependent
IC50 (ASIC1a [4]; CHO 1a, read-out: Inhibition of the ASIC1a channel, CHO 1a): 111 ± 30 µM
block of ASIC1a current (ASIC1a [4]): dose-dependent

NC(=Nc1ccccc1)NC(=O)c1nc(Cl)c(N)nc1N [phenamil]
block of ASIC1a current (ASIC1a [4]): dose-dependent

Cc1c(C)c2c(c(C)c1O)CCC(C)(C(=O)O)O2 (stereo not drawn) [trolox]
LDH release induced by combined 1 hr OGD/acidosis [1]: not inhibited

CC(C)COCC(CN(Cc1ccccc1)c1ccccc1)N1CCCC1 (stereo not drawn) [Bepridil, bepridil]
IC50 (ASIC1a channel; [8]): 82.9 ± 5.2 µM
infarct volume [5]: effectively reduce infarct volume

C/C=C(/C)C(=O)O[C@H]1C(C)=C2[C@H]([C@@H]1OC(=O)CCCCCCC)[C@@](C)(OC(C)=O)C[C@H](OC(=O)CCC)[C@@]1(O)[C@H]2OC(=O)[C@@]1(C)O [thapsigargin]
sustained component of Ca^2+ increase (cortical neurons): partially inhibited

CC12CC3CC(C)(C1)CC(N)(C3)C2 [memantine]
infarct volume ([6]; ASIC1^-/- mice, memantine i.p., n=5): 27.7 ± 1.6 mm^3
infarct volume ([6]; ASIC^+/+ mice, 10 mg/kg memantine i.p., saline 101.4 ± 9.4, n=5): 61.6 ± 12.7 mm^3
